Each structure is given as a SMILES string.

The subject of one experiment is MV4-11. Briefly: 7-day proliferation assay (WST-8), cell growth inhibition. Format: cell-based. As to conditions: Homo sapiens, MV4-11, 168 h, MV4-11 cells, 7 days. As to the method: The effect of representative Compounds of the Disclosure on cell viability was determined in a 7-day proliferation assay. Cells were maintained in the appropriate culture medium with 10% FBS at 37° C. and an atmosphere of 5% CO2.
Cells were seeded in 96-well flat bottom (Corning COSTAR, Corning, NY, cat#3595) at a density of 2,000-3,000 cells/well in 100 μl of culture medium. Compounds were serially diluted in the appropriate medium, and […] the diluted compounds were added to the appropriate wells of the cell plate. After the addition of compounds, the cells were incubated at 37° C. in an atmosphere of 5% CO2 for 7 days. Cell viability was determined using the WST (2-(2-methoxy-4-nitrophenyl)-3-(4-nitrophenyl)-5-(2,4-disulfophenyl)-2H-tetrazolium, monosodium salt) Cell Counting-8 Kit (Dojindo Molecular Technologies, Inc., Rockville, Md.) according to the manufacturers' instructions.
WST-8 reagent was added to each well at a final concentration of 10% (v/v), and then the plates were incubated at 37° C. for 1-2 hours for color development. The absorbance was measured at 450 nm using a SPECTRAmax PLUS plate reader (Molecular Devices, Sunnyvale, Calif.). The readings were normalized to the DMSO-treated cells and the half maximal inhibitory concentration (IC50) was calculated by nonlinear regression (four parameters sigmoid fitted with variable slope, least squares fit, and no constraint) analysis using the GraphPad Prism 5 software (GraphPad Software, La Jolla, Calif.).
For the compound `C=CC(=O)Nc1cccc(S(=O)(=O)c2ccc(N3CC(CN4CCC([C@@](CN5CCC5)(c5cccc(F)c5)[C@H]5CCC[C@@H]5NC(=O)OC)CC4)C3)c(F)c2)c1` [compound 73], the IC50 is under 10 nM.

Consider `C=CC(=O)Nc1cc(S(=O)(=O)c2ccc(N3CC(CN4CCC([C@@](CN5CCC5)(c5cccc(F)c5)[C@H]5CCC[C@@H]5NC(=O)OC)CC4)C3)cc2)ccc1N(C)CCN(C)C` [compound 74], for which the IC50 was under 50 nM.

In the case of `C=CC(=O)N(C)c1cccc(S(=O)(=O)c2ccc(N3CC(CN4CCC([C@@](CN5CCC5)(c5cccc(F)c5)[C@H]5CCC[C@@H]5NC(=O)OC)CC4)C3)cc2)c1` [compound 77], the IC50 is under 50 nM.

Turning to `C=CC(=O)Nc1cc(C(F)(F)F)cc(S(=O)(=O)c2ccc(N3CC(CN4CCC([C@@](CN5CCC5)(c5cccc(F)c5)[C@H]5CCC[C@@H]5NC(=O)OC)CC4)C3)cc2)c1` [compound 78], the IC50 was under 10 nM.

On to `C=CC(=O)Nc1cncc(S(=O)(=O)c2ccc(N3CC(CN4CCC([C@@](CN5CCC5)(c5cccc(F)c5)[C@H]5CCC[C@@H]5NC(=O)OC)CC4)C3)cc2)c1` [compound 79], for which the IC50 was under 50 nM.

Compound `C=CC(=O)Nc1cc(S(=O)(=O)c2ccc(N3CC(CN4CCC([C@@](CN5CCC5)(c5cccc(F)c5)[C@H]5CCC[C@@H]5NC(=O)OC)CC4)C3)cc2)ccc1C(F)(F)F` [compound 81] yielded an IC50 of under 50 nM.

Regarding `C=CC(=O)Nc1cncc(S(=O)(=O)c2ccc(N3CC(F)(CN4CCC([C@@](CN5CCC5)(c5cccc(F)c5)[C@H]5CCC[C@@H]5NC(=O)OC)CC4)C3)c(F)c2)c1` [compound 84], the IC50 was under 50 nM.

`C=CC(=O)Nc1ccnc(S(=O)(=O)c2ccc(N3CC(F)(CN4CCC([C@@](CN5CCC5)(c5cccc(F)c5)[C@H]5CCC[C@@H]5NC(=O)OC)CC4)C3)c(F)c2)c1` [compound 87]: the IC50 is under 500 nM.

Compound `C=CC(=O)Nc1cc(F)cc(S(=O)(=O)c2ccc(N3CC(F)(CN4CCC([C@@](CN5CCC5)(c5cccc(F)c5)[C@H]5CCC[C@@H]5NC(=O)OC)CC4)C3)c(F)c2)c1` [compound 89] showed an IC50 of under 50 nM.

Turning to `C=CC(=O)Nc1cc(S(=O)(=O)c2ccc(N3CC(F)(CN4CCC([C@@](CN5CCC5)(c5cccc(F)c5)[C@H]5CCC[C@@H]5NC(=O)OC)CC4)C3)c(F)c2)ccc1F` [compound 90], the IC50 is under 50 nM.

The compound `C=CC(=O)N1CC(S(=O)(=O)c2ccc(N3CC(F)(CN4CCC([C@@](CN5CCC5)(c5cccc(F)c5)[C@H]5CCC[C@@H]5NC(=O)OC)CC4)C3)c(F)c2)C1` [compound 93] had an IC50 of under 50 nM.

The compound `COC(=O)N[C@H]1CCC[C@@H]1[C@](CN1CCC1)(c1cccc(F)c1)C1CCN(CC2(F)CN(c3ccc(S(=O)(=O)C4CN(C(=O)/C=C/CN(C)C)C4)cc3F)C2)CC1` [compound 96] came in with an IC50 of under 10 nM.

The compound `C=CC(=O)Nc1cc(S(=O)(=O)c2ccc(N3CC(F)(CN4CCC([C@@](CN5CCC5)(c5cccc(F)c5)[C@H]5CCC[C@@H]5NC(=O)OC)CC4)C3)c(F)c2)ccc1C` [compound 97] showed an IC50 of under 10 nM.

As to `COC(=O)N[C@H]1CCC[C@@H]1[C@](CN1CCC1)(c1cccc(F)c1)C1CCN(CC2CN(c3ccc(S(=O)(=O)C4CN(C(=O)/C=C/CN5CCC(O)CC5)C4)cc3)C2)CC1` [compound 98], the IC50 is under 10 nM.

Compound `C#CC(=O)N1CC(S(=O)(=O)c2ccc(N3CC(F)(CN4CCC([C@@](CN5CCC5)(c5cccc(F)c5)[C@H]5CCC[C@@H]5NC(=O)OC)CC4)C3)c(F)c2)C1` [compound 101] yielded an IC50 of under 500 nM.

With `C=CC(=O)Nc1cccc(S(=O)(=O)c2ccc(N3CC[C@@H](CN4CCC([C@@](CN5CCC5)(c5cccc(F)c5)[C@H]5CCC[C@@H]5NC(=O)OC)CC4)C3)cc2)c1` [compound 104], the IC50 was under 100 nM.

`C=CC(=O)N1CCCC(S(=O)(=O)c2ccc(N3CC(F)(CN4CCC([C@@](CN5CCC5)(c5cccc(F)c5)[C@H]5CCC[C@@H]5NC(=O)OC)CC4)C3)c(F)c2)C1` (stereo partly drawn) [compound 105] yielded an IC50 of under 50 nM.

As for `CC#CC(=O)N1CCCC(S(=O)(=O)c2ccc(N3CC(F)(CN4CCC([C@@](CN5CCC5)(c5cccc(F)c5)[C@H]5CCC[C@@H]5NC(=O)OC)CC4)C3)c(F)c2)C1` (stereo partly drawn) [compound 109], the IC50 is under 50 nM.

`COC(=O)N[C@H]1CCC[C@@H]1[C@](CN1CCC1)(c1cccc(F)c1)C1CCN(CC2(F)CN(c3ccc(S(=O)(=O)C4CCCN(C(=O)/C=C/CN5CCCCC5)C4)cc3F)C2)CC1` (stereo partly drawn) [compound 110] registered an IC50 of under 100 nM.

`C#CC(=O)N1CCCC(S(=O)(=O)c2ccc(N3CC(F)(CN4CCC([C@@](CN5CCC5)(c5cccc(F)c5)[C@H]5CCC[C@@H]5NC(=O)OC)CC4)C3)c(F)c2)C1` (stereo partly drawn) [compound 111] yielded an IC50 of under 500 nM.

The compound `C=CC(=O)N1CCCC(S(=O)(=O)c2ccc(N3CC(C)(CN4CCC([C@@](CN5CCC5)(c5cccc(F)c5)[C@H]5CCC[C@@H]5NC(=O)OC)CC4)C3)c(F)c2)C1` (stereo partly drawn) [compound 113] displayed an IC50 of under 50 nM.

In the case of `CC#CC(=O)N1CC[C@@H](S(=O)(=O)c2ccc(N3CC(F)(CN4CCC([C@@](CN5CCC5)(c5cccc(F)c5)[C@H]5CCC[C@@H]5NC(=O)OC)CC4)C3)c(F)c2)C1` [compound 115], the IC50 was under 50 nM.

Take `CCOC(=O)/C=C/CNC(=O)c1cccc(S(=O)(=O)c2ccc(N3CC(F)(CN4CCC([C@@](CN5CCC5)(c5cccc(F)c5)[C@H]5CCC[C@@H]5NC(=O)OC)CC4)C3)cc2)c1` [compound 119]: the IC50 is under 100 nM.

For the compound `COC(=O)N[C@H]1CCC[C@@H]1[C@](CN1CCC1)(c1cccc(F)c1)C1CCN(CC2(F)CN(c3ccc(S(=O)(=O)c4cccc(C(=O)NC/C=C/S(C)(=O)=O)c4)cc3)C2)CC1` [compound 120], the IC50 is under 10 nM.

For `COC(=O)N[C@H]1CCC[C@@H]1[C@](CN1CCC1)(c1cccc(F)c1)C1CCN(CC2(F)CN(c3ccc(S(=O)(=O)C4CCCN(C(=O)C#CCO)C4)cc3F)C2)CC1` (stereo partly drawn) [compound 121], the IC50 is under 100 nM.

For the compound `COC(=O)N[C@H]1CCC[C@@H]1[C@](CN1CCC1)(c1cccc(F)c1)C1CCN(CC2(F)CN(c3ccc(S(=O)(=O)C4CCCN(C(=O)NC/C=C/S(C)(=O)=O)C4)cc3F)C2)CC1` (stereo partly drawn) [compound 123], the IC50 was under 10 nM.

`COC(=O)N[C@H]1CCC[C@@H]1[C@](CNC(C)=O)(c1cccc(F)c1)C1CCN(CC2CN(c3ccc(S(=O)(=O)C4CN(C(=O)/C=C/CN5CCCCC5)C4)cc3)C2)CC1` [compound 129] displayed an IC50 of under 10 nM.

`CC#CC(=O)N1CC(S(=O)(=O)c2ccc(N3CC(CN4CCC([C@@](CNC(C)=O)(c5cccc(F)c5)[C@H]5CCC[C@@H]5NC(=O)OC)CC4)C3)cc2)C1` [compound 130] registered an IC50 of under 10 nM.

Consider `C=CC(=O)N1CCCC(S(=O)(=O)c2ccc(N3CC(F)(CN4CCC([C@@](CNC(C)=O)(c5cccc(F)c5)[C@H]5CCC[C@@H]5NC(=O)OC)CC4)C3)cc2)C1` (stereo partly drawn) [compound 149], for which the concentration for half-maximal inhibition (IC50) is under 500 nM.

In turn, `CC#CC(=O)N1CC(S(=O)(=O)c2ccc(N3CC(CN4CCC([C@@](CNC(C)=O)(c5cccc(F)c5)[C@H]5CCC[C@@H]5NC(=O)OC)CC4)C3)cc2CN2CC(F)C2)C1` [compound 164] showed an IC50 of under 10 nM.

`CC#CC(=O)N1CC(S(=O)(=O)c2ccc(N3CC(F)(CN4CCC([C@@](CNC(C)=O)(c5cccc(F)c5)[C@H]5CCC[C@@H]5NC(=O)OC)CC4)C3)cc2CN2CC(F)C2)C1` [compound 178] displayed an IC50 of under 50 nM.

In turn, `C=CC(=O)N1CCOC[C@@H](S(=O)(=O)c2ccc(N3CC(F)(CN4CCC([C@@](CNC(=O)OC)(c5cccc(F)c5)[C@H]5CCC[C@@H]5NC(=O)OC)CC4)C3)c(F)c2)C1` [compound 180] came in with an IC50 of under 100 nM.

In turn, `CC#CC(=O)N1CCC[C@H](S(=O)(=O)c2ccc(N3CC(F)(CN4CCC([C@@](CN5CCC5)(c5cccc(F)c5)[C@H]5CCC[C@@H]5NC(=O)OC)CC4)C3)c(F)c2)C1` [compound 192] yielded an IC50 of under 10 nM.

Compound `CC#CC(=O)N1CC[C@H](S(=O)(=O)c2ccc(N3CC(F)(CN4CCC([C@@](CN5CCC5)(c5cccc(F)c5)[C@H]5CCC[C@@H]5NC(=O)OC)CC4)C3)c(F)c2)C1` [compound 194] gave an IC50 of under 500 nM.

Compound `C=CC(=O)N1CCC[C@@H](S(=O)(=O)c2ccc(N3CC(O)(CN4CCC([C@@](CN5CCC5)(c5cccc(F)c5)[C@H]5CCC[C@@H]5NC(=O)OC)CC4)C3)cc2)C1` [compound 195] came in with an IC50 of under 10 nM.

Staying with this experiment, now noted: MV4-11 cells, 7 days.
`C=CC(=O)N1CCCC(S(=O)(=O)c2ccc(N3CC(F)(CN4CCC([C@@](CN5CCC5)(c5cccc(F)c5)[C@H]5CCC[C@@H]5NC(=O)OC)CC4)C3)c(F)c2)C1` (stereo partly drawn) [compound 106] had an IC50 of under 50 nM.

The compound `C=CC(=O)N1CCC(S(=O)(=O)c2ccc(N3CC(F)(CN4CCC([C@@](CN5CCC5)(c5cccc(F)c5)[C@H]5CCC[C@@H]5NC(=O)OC)CC4)C3)c(F)c2)C1` (stereo partly drawn) [compound 107] registered a 50% inhibitory concentration (IC50) of under 500 nM.

Compound `C=CC(=O)N1CCC(S(=O)(=O)c2ccc(N3CC(F)(CN4CCC([C@@](CN5CCC5)(c5cccc(F)c5)[C@H]5CCC[C@@H]5NC(=O)OC)CC4)C3)c(F)c2)C1` (stereo partly drawn) [compound 108] gave an IC50 of under 100 nM.

`CC#CC(=O)N1CCCC(S(=O)(=O)c2ccc(N3CC(F)(CN4CCC([C@@](CN5CCC5)(c5cccc(F)c5)[C@H]5CCC[C@@H]5NC(=O)OC)CC4)C3)c(F)c2)C1` (stereo partly drawn) [compound 114] returned an IC50 of under 50 nM.

The IC50 is the concentration needed to halve the response being measured.

(Values after patent US20210115018A1, “PIPERIDINE COMPOUNDS AS COVALENT MENIN INHIBITORS” (THE REGENTS OF THE UNIVERSITY OF MICHIGAN, priority 2018, published 2021).)
